Laboratory results from US5186941A (priority 1991, dated 1993).

Key:
[1] = rat, in vivo
[2] = rat, in vivo; remark: listed apart in the source

C[n+]1ccccc1/C=N/O [2-PAMCl, 2-pralidoxime chloride]
death of all animals, time after injection [1]: ≤ 30 min
duration of therapeutic plasma drug level (4.0 μg/ml plasma) [2]: 21/4
time until blood concentration drops below therapeutic level (TL) [2]: 2 to 3 h
